Assay results: publication PMC6767256, “Leishmania mexicana Trypanothione Reductase Inhibitors: Computational and Biological Studies” (Molecules, 2019)
Where two headings read alike, the source gives them in different places.

Key:
in vitro = conditions: mouse
Method: The cytotoxicity of the five selected compounds was tested using murine macrophage cell line J774.2 (ATCC ®TIB-67). […] For this, macrophages were seeded (5 × 10^4 cells/well) in 96-well flat-bottomed microplates and allowed to adhere for 24 h at 37 °C in 5% CO2. […] Thereafter, 20 µL of a 2.5 mM resazurin solution was added to each well, and the plates were incubated for another 4 h. The fluorescence emission was measured as described above. The half-maximal cytotoxicity concentration (CC50) was determined by Probit analysis.

[1] = test system: L. mexicana promastigotes strain MNYC/BZ/62/M379; test: Activity against L. mexicana promastigotes (resazurin method); conditions: for SI (selectivity index): SI = CC50/IC50 (J774.2 / L. mexicana promastigotes)
Method: After incubation for 48 h at 26 °C, 20 µL of 2.5 mM resazurin solution was added to each well and incubated for 4 h. […] All assays were carried out in triplicate. The half-maximal inhibitory concentration (IC50) was determined by Probit analysis.

recombinant LmTR (rLmTR) = test: Inhibition of rLmTR activity (NADPH oxidation at 340 nm); assay type: biochemical, Leishmania mexicana; conditions: 10% DMSO
Method: (§1) The enzymatic activity of rLmTR was assayed spectrophotometrically as previously described. The reaction mixture contained 40 mM Hepes, pH 7.5, 1 mM EDTA, 150 µM NADPH, and 30 ng rLmTR. The reaction was initiated by adding the substrate (T[S]2) at 400 µM and was allowed to proceed for 1 min. NADPH oxidation was followed at 340 nm, monitored every 20 s, in a Synergy™ H1 microplate reader (Biotek Instruments, Inc. Winooski, VT, USA). The decrease in the absorbance at 340 nm was used to determine the moles of substrate consumed. One unit of enzyme activity is defined as the amount of enzyme required to convert 1 μmol of NADPH to NADP per minute at 25 °C [42].
(§2) Compounds ZINC04684558, ZINC09642432, ZINC12151998, ZINC14970552, and ZINC11841871 with affinity to the LmTR catalytic site with docking scores of at most −5.29 kcal/mol were selected to evaluate their in vitro inhibition of rLmTR activity. […] The assay was carried out following the conditions previously described to determine the rLmTR activity. The percentage of inhibition was obtained using the following equation:(1) % Inhibition=[…] where A0 is the enzyme activity without inhibitor and A1 is the enzyme activity in the presence of inhibitor.

[2] = Solubility in the enzyme assay (observation); assay type: physicochemical; conditions: prevented testing at higher concentration in the rLmTR assay
Method: as §2

rLmTR = test: Kinetic characterization of rLmTR with substrate T[S]2; assay type: biochemical, Leishmania mexicana; conditions: T[S]2 as substrate, 150 µM NADPH
Method: as §1
The kinetic data were analyzed by linear regression fit to Michaelis–Menten kinetics and linearized by the double reciprocal transformation of Lineweaver and Burk.

[3] = Leishmania mexicana, 48 h, read-out: IC50 (leishmanicidal activity), L. mexicana promastigotes, 48 h at 26 °C

SMILES	CC50 at 24 h (in vitro) [µM]	IC50 [1, 3] [µM]	SI (selectivity index) [1]	% Inhibition of rLmTR activity (recombinant LmTR (rLmTR); compound at 300 µM) [%]	CC50 at 24 h (in vitro; J774.2 macrophage cell line) [µM]	IC50 ([1]; read-out: IC50 (leishmanicidal activity), L. mexicana promastigotes, 48 h at 26 °C) [µM]	% Inhibition of rLmTR activity (recombinant LmTR (rLmTR); compound at 100 µM) [%]	Solubility [2]	% Inhibition of rLmTR activity (recombinant LmTR (rLmTR); compound at 150 µM) [%]	Km (rLmTR) [µM]
C[C@@H]1[C@H](O)[C@@H](C)/C=C/C=C/C=C/C=C/C=C/C=C/C=C/[C@H](O[C@@H]2O[C@H](C)[C@@H](O)[C@H](N)[C@@H]2O)C[C@@H]2O[C@](O)(C[C@@H](O)C[C@@H](O)[C@H](O)CC[C@@H](O)C[C@@H](O)CC(=O)O[C@H]1C)C[C@H](O)[C@H]2C(=O)O [Amphotericin B, reference compound]	7.4	0.11	67							
Cc1nnc(N2CCN(C(=O)Nc3ccc(F)cc3F)CC2)c2nn(-c3ccccc3)c(C)c12 [ZINC09642432]		> 200	1.5	40.1	335	222				
CCCCCCCCCCCCCCCCOP(=O)([O-])OCC[N+](C)(C)C [Miltefosine, reference compound]	141	2.98	47							
O=C(NCc1ccc2ncccc2c1)c1cnn(-c2ncc3c(n2)-c2ccccc2CCC3)c1C1CC1 [ZINC12151998]		58	0.9		53		32.9	poor solubility		
CC(=O)N[C@@H]1c2ccccc2C2(CCN(C(=O)c3n[nH]c4ccccc34)CC2)[C@H]1OCc1ccccc1 [ZINC11841871]		159	0.6		103			poor solubility	39.5	
N[C@@H](CCC(=O)N[C@H]1CSSC[C@H](NC(=O)CC[C@H](N)C(=O)O)C(=O)NCC(=O)NCCCNCCCCNC(=O)CNC1=O)C(=O)O [T[S]2, trypanothione disulfide]										173
CC1(C)C[C@H](NC(=O)c2cnn(-c3ncc4c(n3)-c3ccccc3CC4)c2C2CC2)CCO1 [ZINC14970552]		147	1.4	35.7	219					
